Tests used:
[1] = target: T1, Histone deacetylase (Homo sapiens) (UniProt Q13547+O15379+Q9UBN7+Q92769+Q9UQL6+Q8WUI4+Q9BY41+Q96DB2+P56524+Q9UKV0+Q969S8); conditions: HeLa, at 1 µM
Description: Inhibition of HDAC in human HeLa cells at 1 uM after 15 mins

[2] = target: T1, Histone deacetylase (Homo sapiens); conditions: HeLa, at 0.1 µM
Description: Inhibition of HDAC in human HeLa cells at 0.1 uM after 15 mins

[3] = target: T1, Histone deacetylase (Homo sapiens); conditions: HeLa, at 10 µM
Description: Inhibition of HDAC in human HeLa cells at 10 uM after 15 mins

Histone deacetylase 3 = Histone deacetylase 3 (Homo sapiens, UniProt O15379); experiment: Inhibition of HDAC3
Histone deacetylase 1 = Histone deacetylase 1 (Homo sapiens, UniProt Q13547); experiment: Inhibition of HDAC1
Histone deacetylase 1, sequence (Q13547 whole entry): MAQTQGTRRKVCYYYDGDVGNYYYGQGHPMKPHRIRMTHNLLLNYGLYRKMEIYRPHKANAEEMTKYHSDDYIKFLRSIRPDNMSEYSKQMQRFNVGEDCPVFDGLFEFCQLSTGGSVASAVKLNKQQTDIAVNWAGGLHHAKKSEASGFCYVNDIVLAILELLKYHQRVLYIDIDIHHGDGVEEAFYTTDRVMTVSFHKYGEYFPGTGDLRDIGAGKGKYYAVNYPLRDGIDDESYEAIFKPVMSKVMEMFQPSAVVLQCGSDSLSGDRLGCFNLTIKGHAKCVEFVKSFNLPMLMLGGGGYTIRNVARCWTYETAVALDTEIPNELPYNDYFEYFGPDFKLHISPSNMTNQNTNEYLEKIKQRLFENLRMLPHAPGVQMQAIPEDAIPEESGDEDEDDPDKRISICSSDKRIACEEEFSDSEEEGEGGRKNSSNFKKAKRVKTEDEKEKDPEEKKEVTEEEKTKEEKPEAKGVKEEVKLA

Histone deacetylase 2 = Histone deacetylase 2 (Homo sapiens, UniProt Q92769)
Histone deacetylase 2, sequence (Q92769 whole entry): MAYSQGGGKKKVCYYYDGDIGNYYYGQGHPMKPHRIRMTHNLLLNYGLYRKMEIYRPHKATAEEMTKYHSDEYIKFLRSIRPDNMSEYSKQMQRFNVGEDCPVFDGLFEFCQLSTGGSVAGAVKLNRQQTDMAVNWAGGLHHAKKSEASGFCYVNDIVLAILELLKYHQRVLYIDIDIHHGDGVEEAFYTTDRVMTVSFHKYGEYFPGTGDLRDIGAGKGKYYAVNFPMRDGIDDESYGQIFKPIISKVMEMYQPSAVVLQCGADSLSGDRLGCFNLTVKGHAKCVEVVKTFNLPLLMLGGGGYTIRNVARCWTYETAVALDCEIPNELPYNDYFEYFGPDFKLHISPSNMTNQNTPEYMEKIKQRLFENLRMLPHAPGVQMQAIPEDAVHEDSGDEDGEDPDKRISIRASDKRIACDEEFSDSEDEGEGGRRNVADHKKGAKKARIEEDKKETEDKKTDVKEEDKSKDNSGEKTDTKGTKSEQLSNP

[4] = target: T2, Protein deacetylase HDAC6 (Homo sapiens, UniProt Q9UBN7); experiment: Inhibition of HDAC6
T2 sequence (Q9UBN7 whole entry): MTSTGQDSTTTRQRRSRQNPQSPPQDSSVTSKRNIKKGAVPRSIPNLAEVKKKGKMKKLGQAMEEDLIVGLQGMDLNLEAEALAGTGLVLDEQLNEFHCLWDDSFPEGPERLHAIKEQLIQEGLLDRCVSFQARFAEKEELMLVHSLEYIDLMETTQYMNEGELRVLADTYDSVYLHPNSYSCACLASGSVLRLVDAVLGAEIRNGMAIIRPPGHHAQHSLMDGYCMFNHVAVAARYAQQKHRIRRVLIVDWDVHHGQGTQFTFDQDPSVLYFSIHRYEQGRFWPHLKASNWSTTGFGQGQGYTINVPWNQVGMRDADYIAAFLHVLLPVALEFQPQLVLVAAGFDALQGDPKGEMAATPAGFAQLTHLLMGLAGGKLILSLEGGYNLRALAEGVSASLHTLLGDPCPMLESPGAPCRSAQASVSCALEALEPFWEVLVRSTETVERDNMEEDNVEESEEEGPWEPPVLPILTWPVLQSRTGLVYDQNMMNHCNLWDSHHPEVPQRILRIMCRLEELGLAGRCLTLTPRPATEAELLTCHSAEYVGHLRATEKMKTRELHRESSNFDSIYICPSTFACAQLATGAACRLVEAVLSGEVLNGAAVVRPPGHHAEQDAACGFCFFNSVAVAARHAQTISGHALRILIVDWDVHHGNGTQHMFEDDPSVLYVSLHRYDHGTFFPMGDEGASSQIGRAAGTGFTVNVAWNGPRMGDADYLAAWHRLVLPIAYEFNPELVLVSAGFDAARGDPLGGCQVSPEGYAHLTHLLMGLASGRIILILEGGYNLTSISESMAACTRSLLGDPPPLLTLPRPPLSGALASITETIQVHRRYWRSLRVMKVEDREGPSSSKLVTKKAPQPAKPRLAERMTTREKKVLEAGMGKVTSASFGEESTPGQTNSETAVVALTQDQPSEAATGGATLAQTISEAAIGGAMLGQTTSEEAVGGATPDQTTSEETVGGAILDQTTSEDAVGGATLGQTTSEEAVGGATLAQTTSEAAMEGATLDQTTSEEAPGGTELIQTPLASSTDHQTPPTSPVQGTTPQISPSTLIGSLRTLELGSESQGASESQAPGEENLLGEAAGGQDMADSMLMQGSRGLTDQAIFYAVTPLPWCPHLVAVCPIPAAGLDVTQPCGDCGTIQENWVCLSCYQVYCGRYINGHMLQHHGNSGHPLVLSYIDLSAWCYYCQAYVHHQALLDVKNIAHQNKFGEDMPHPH

[5] = target: T3, Polyamine deacetylase HDAC10 (Homo sapiens, UniProt Q969S8); experiment: Inhibition of HDAC10
T3 sequence (Q969S8 whole entry): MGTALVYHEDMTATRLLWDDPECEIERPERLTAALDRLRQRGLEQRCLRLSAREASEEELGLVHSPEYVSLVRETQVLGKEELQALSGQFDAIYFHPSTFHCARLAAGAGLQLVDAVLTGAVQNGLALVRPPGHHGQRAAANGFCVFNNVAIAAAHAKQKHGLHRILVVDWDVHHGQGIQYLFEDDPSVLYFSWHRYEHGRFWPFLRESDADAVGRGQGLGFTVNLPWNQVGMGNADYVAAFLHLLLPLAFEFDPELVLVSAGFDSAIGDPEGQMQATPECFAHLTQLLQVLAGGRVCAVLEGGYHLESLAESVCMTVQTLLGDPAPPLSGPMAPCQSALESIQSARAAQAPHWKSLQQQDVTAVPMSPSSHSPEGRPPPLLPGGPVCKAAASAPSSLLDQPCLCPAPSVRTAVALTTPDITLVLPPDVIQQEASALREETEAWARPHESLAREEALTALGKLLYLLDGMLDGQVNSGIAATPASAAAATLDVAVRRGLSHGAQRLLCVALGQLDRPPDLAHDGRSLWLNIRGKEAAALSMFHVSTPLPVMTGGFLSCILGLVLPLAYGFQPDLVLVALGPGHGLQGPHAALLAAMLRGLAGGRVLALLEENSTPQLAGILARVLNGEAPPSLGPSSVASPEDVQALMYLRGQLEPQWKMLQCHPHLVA

Histone deacetylase 3, sequence (O15379 whole entry): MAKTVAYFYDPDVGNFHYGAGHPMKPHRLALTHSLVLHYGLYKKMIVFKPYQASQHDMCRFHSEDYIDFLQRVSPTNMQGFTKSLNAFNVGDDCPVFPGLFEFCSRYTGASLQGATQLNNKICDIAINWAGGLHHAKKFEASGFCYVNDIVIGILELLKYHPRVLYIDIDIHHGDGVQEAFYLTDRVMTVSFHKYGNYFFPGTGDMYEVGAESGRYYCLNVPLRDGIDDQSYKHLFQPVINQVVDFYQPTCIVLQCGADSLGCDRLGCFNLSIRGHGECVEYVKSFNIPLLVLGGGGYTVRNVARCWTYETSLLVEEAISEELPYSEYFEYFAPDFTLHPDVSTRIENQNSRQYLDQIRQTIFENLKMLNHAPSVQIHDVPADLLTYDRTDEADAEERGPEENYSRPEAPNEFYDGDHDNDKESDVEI

| SMILES | inhibition [1] | inhibition [2] | inhibition [3] | IC50 (Histone deacetylase 3) | IC50 (Histone deacetylase 1) | IC50 (Histone deacetylase 2) | IC50 [4] | IC50 [5] |
| --- | --- | --- | --- | --- | --- | --- | --- | --- |
| O=C(CCCCc1cc(Cc2nn[nH]n2)no1)Nc1ccccc1 | 0% | 0% | 5% | – | – | – | – | – |
| O=C(CCCC1CC(C(=O)NO)=NO1)Nc1ccccc1 (centres undefined) | 9.75% | 3.5% | 56% | – | – | – | – | – |
| O=C(CCCCc1cc(-c2ccccc2O)no1)Nc1ccccc1 | 0% | 0% | 0% | – | – | – | – | – |
| NNC(=O)c1cc(CCCCC(=O)Nc2ccccc2)on1 | 0% | 0% | 8% | – | – | – | – | – |
| O=C(CCCCc1cc(C(=O)NO)no1)Nc1ccccc1 | 26% | 1.5% | 78.5% | 26.7 µM | 4.95 µM | 18.9 µM | 0.43 µM | 9.05 µM |
| Nc1ccccc1-c1cc(CCCCC(=O)Nc2ccccc2)on1 | 0% | 0% | 0.5% | – | – | – | – | – |
| O=C(CCCCC1CC(C(=O)NO)=NO1)Nc1ccccc1 (centres undefined) | 16.8% | 4% | 77% | 28.1 µM | 17.7 µM | 36.2 µM | 0.76 µM | 23.9 µM |
| O=C(CCCc1cc(C(=O)NO)no1)Nc1ccccc1 | 23.8% | 4.5% | 78.5% | – | – | – | – | – |

Other lines, results leading:

| inhibition [1] | inhibition [2] | inhibition [3] | IC50 (Histone deacetylase 3) | IC50 (Histone deacetylase 1) | IC50 (Histone deacetylase 2) | IC50 [4] | IC50 [5] | SMILES |
| --- | --- | --- | --- | --- | --- | --- | --- | --- |
| 0% | 4.5% | 0% | – | – | – | – | – | Nc1cc(CCCCC(=O)Nc2ccccc2)on1 |
| 0.75% | 0% | 7.5% | – | – | – | – | – | O=C(CCCCc1cc(/C=N/O)no1)Nc1ccccc1 |
| 0% | 0% | 0% | – | – | – | – | – | O=C(CCCCc1cc(CO)no1)Nc1ccccc1 |
| 22% | 4.5% | 80% | – | – | – | – | – | O=C(CCCCc1cc(CS)no1)Nc1ccccc1 |
| 0% | 0% | 0.5% | – | – | – | – | – | O=C(CCCCc1cc(C(=O)O)no1)Nc1ccccc1 |

From ChEMBL document CHEMBL1240475, “Design and synthesis of novel isoxazole-based HDAC inhibitors” (Eur J Med Chem, 2010)
